One may read the EC50 as the midpoint of the concentration-response curve.

Data set [1] has as its system rat mesenteric artery. On the set-up: method as in Hoi et al., 2007. The conditions noted are these: ref Hoi et al., 2007; read-out: EC50, vasorelaxation of rat mesenteric arteries; cited from earlier work.
Data set [2] relates to mouse vas deferens. Briefly: Electrically‐evoked contraction of the mouse vas deferens. The data set is classed as cell-based. The conditions noted are these: Mus musculus, read-out: EC50, inhibition of electrically‐evoked contraction. As for the experimental part: Vasa deferentia were obtained from outbred MF‐1 mice and mounted vertically in a 4 mL organ bath at an initial tension of 0.5 g. The baths contained Mg^2+‐free Krebs solution (NaCl 118.2 mM, KCl 4.75 mM, KH2PO4 1.19 mM, NaHCO3 25.0 mM, glucose 11.0 mM and CaCl2·6H2O 2.54 mM), which was kept at 35–36°C and bubbled with 95% O2 and 5% CO2. […] Contractions were monitored by a computer using a data recording and analysis system as described previously (Ross et al., 2001). After placement in an organ bath, each tissue was subjected to a stimulation‐free period of 10 min and then stimulated for 10 min. Tissues were then subjected to alternate periods of stimulation (5 min) and rest (10 min) until consistent twitch amplitudes were obtained. This equilibration procedure was followed by a stimulation‐free period of 25 min. Tissues were then stimulated for 5 min after which the first agonist addition was made and stimulation continued until the end of the experiment.

Data set [3] can be described thus: Plasma, brain and spinal cord levels in ABH mice with spastic EAE. The data set is classed as in vivo, mouse. The conditions noted are these: after 5 mg·kg^−1 p.o. VSN16R, ABH mice with spastic EAE. As for the experimental part:
(§1) The stability of compounds when subjected to hepatic and plasma degradation was assessed in vitro by Inpharmatica, Cambridge, UK. Compounds (1 μM) were incubated with either pooled mouse liver microsomes (0.1 mg protein mL^−1) or pooled mouse plasma at 37°C for 0, 5, 10, 20 and 40 min before termination with acetonitrile containing warfarin as an analytical internal standard. Samples were centrifuged, and the resultant supernatant analysed for parent compound. The mass responses at baseline were taken as the 100% reference values against which the disappearance of the compound was measured. The natural log of the % remaining values was used to generate linear plots of disappearance of the compounds. Half‐life values were calculated from the slope of these plots. Hepatocyte metabolism was assessed by Cyprotex, Macclesfield, and 10 μM VSN16R was incubated with primary mouse, rat, monkey (Macaque) and human hepatocytes for 1 h, and the presence of metabolites was assessed using liquid […] mass spectroscopy. The stability of VSN16R was assessed in vivo by Inpharmatica, Cyprotex and Charles Rivers, Cambridge. Blood (plasma) samples were obtained prior to and 5 min to 24 h after drug administration of 2–5 mg·kg^−1 i.v. or 5 mg·kg^−1 p.o. VSN16R into outbred mice and rats (n = 3 per time point). In addition, plasma, brain and spinal cord samples were obtained from ABH with spastic EAE. Immediately after blood collection, the brain and spinal cord were removed and then stored at −20°C prior to assay. Tissue samples were weighed, homogenized and centrifuged, and the lysates generated. Brain lysates and plasma were assayed by LC–MS methods by Inpharmatica/Charles Rivers, Cambridge, UK. This was also performed using a Waters Xevo TQ or API4000, AB Sciex mass spectrometer using spiked samples as standards. PK Solutions Software (Summit Research Services, Montrose, CO, USA), AB Sciex Analyst software combined with Thermo Fisher Scientific Watson LIMS processing and reporting software or WinNonLin pharmacokinetic or PK solutions 2.0 software (Summit Research Services, Montrose CO, USA) were used to produce PK parameters. Data are expressed as mean ± SEM. The detection limit of VSN16R was 2 ng·mL^−1 in plasma and brain and 14 ng·mL^−1 in spinal cords. The detection limit of VSN22R was 2 ng·mL^−1 in plasma and 0.1 ng·mL^−1 for VSN44R in plasma. Pharmacokinetics in toxicological samples in rats (n = 6 per group), dogs (n = 6 per group) and humans (n = 6 per group) were performed by Charles Rivers (Edinburgh, UK).

For data set [4], the target named is T1, BKCa channel (Homo sapiens, UniProt Q12791+Q86W47).
T1 construct: host or cells: EA.hy926 endothelial cells
Kind of data set: Single‐channel inside‐out patch clamp, EA.hy926 cells. The data set is classed as cell-based. The conditions noted are these: 3 μM, inner surface of membrane, 40 mV, 0.3 μM free Ca^2+. The method, then: The human EA.hy926 endothelial cells (ATCC, Manassas, USA) were grown in DMEM containing 10% FCS and 1% HAT (5 mM hypoxanthine, 20 μM aminopterin and 0.8 mM thymidine) and were maintained in an incubator at 37°C in 5% CO2 atmosphere (Bondarenko et al., 2013). Human HNC‐2 neuronal cells were obtained from ATCC. For experiments, cells were plated on glass coverslips. Single‐channel recordings were obtained from excised inside‐out membrane patches in symmetrical solutions using the patch‐clamp technique. All patch‐clamp experiments were performed at room temperature with the use of a water hydraulic micromanipulator (WR‐6, Narishige, Japan). […] The pipettes were filled with 140 mM KCl, 10 mM HEPES, 1 mM MgCl2, 5 mM EGTA and […] CaCl2 buffered to pH 7.2 by adding KOH. Cells were super‐perfused with a bath solution containing 140 mM NaCl, 5 mM KCl, 1.2 mM MgCl2, 10 mM HEPES, 10 mM glucose and 2.4 mM CaCl2. Following gigaseal formation, bath solution was switched to the following: 140 mM KCl, 10 mM HEPES, 1 mM MgCl2, 5 mM EGTA and a designated free Ca^2+ concentration, which was adjusted by adding different amounts of CaCl2 buffered to pH 7.2. (Bondarenko et al., 2011; Bondarenko et al., 2013). Single‐channel activity was expressed as NPo, where N represents the number of functional ion channels in the membrane patch and Po represents the open channel probability determined from idealized traces (Bondarenko et al., 2011). NPo was obtained from ≥20 s of continuous recording under each experimental condition. The effect of VSN16R was estimated after 3 min of continuous exposure to VSN16R‐containing solution. Data were analysed by ANOVA, and statistical significance was evaluated using Scheffés post hoc test of the Prism 5 software for Windows (GraphPad Software).
(In general: In patch-clamp work, channel activity is measured electrically.)

A short description of data set [5]: Phase I pharmacokinetics in healthy humans. The data set is classed as in vivo, human. The conditions noted are these: male, human, plasma, oral; twice daily dosing of VSN16R; read-out: Steady‐state plasma levels. As for the experimental part:
as §1, with “cords.” for “cords. The detection limit of VSN22R was 2 ng·mL^−1 in plasma and 0.1 ng·mL^−1 for VSN44R in plasma. Pharmacokinetics in toxicological samples in rats (n = 6 per group), dogs (n = 6 per group) and humans (n = 6 per group) were performed by Charles Rivers (Edinburgh, UK).”

Data set [6] relates to spastic ABH mice with EAE. Kind of data set: Spasticity: resistance to hindlimb flexion against a strain gauge. The conditions noted are these: 5 mg·kg^−1 i.v.
The nature of data set [7]: Stability in pooled mouse liver microsomes. The conditions noted are these: microsomes, 37°C, upper limit 100 min, read-out: t ½ in liver microsomes. It counts as in vitro ADME. As for the experimental part: (§2) The stability of compounds when subjected to hepatic and plasma degradation was assessed in vitro by Inpharmatica, Cambridge, UK. Compounds (1 μM) were incubated with either pooled mouse liver microsomes (0.1 mg protein mL^−1) or pooled mouse plasma at 37°C for 0, 5, 10, 20 and 40 min before termination with acetonitrile containing warfarin as an analytical internal standard. Samples were centrifuged, and the resultant supernatant analysed for parent compound. The mass responses at baseline were taken as the 100% reference values against which the disappearance of the compound was measured. The natural log of the % remaining values was used to generate linear plots of disappearance of the compounds. Half‐life values were calculated from the slope of these plots. Hepatocyte metabolism was assessed by Cyprotex, Macclesfield, and 10 μM VSN16R was incubated with primary mouse, rat, monkey (Macaque) and human hepatocytes for 1 h, and the presence of metabolites was assessed using liquid […] mass spectroscopy. The stability of VSN16R was assessed in vivo by Inpharmatica, Cyprotex and Charles Rivers, Cambridge. Blood (plasma) samples were obtained prior to and 5 min to 24 h after drug administration of 2–5 mg·kg^−1 i.v. or 5 mg·kg^−1 p.o. VSN16R into outbred mice and rats (n = 3 per time point). […] Data are expressed as mean ± SEM. […]

Data set [8] in a line: Stability in pooled mouse plasma. The conditions noted are these: 37°C, upper limit 100 min, read-out: t ½ in plasma. It counts as in vitro ADME. The method, then: as §2
The target in data set [9] is CYP450 2B6 (Homo sapiens, UniProt P20813).
Source text: IC50 Inhibition of substrate binding
(§3) Inhibition of binding of either 3-cyano-7-ethoxycoumarin, dibenzylfluorescein or 7-benzyoxy-4-
(§4) (trifluoromethyl) coumarin in human enzyme transfected BTI NN-5B1-4 cells or Sf9 insect cells or
(§5) inhibition of dextromethorphan substrate to CYP450 2D6 in liver microsomes.
Data set [10] addresses CYP450 2A6 (Homo sapiens, UniProt P11509). Kind of data set: CYP450 inhibition of substrate binding.
Source text: IC50 Inhibition of substrate binding
as §3, §4, §5
In data set [11] the test system is rat mesenteric artery. Kind of data set: Methoxamine‐evoked contraction of rat mesenteric artery. The data set is classed as cell-based. The conditions noted are these: 200 µM. As for the experimental part: Vessels were equilibrated and set to a basal tension of 2 to 2.5 mN. The integrity of the endothelium was assessed by pre‐contracting the vessel with 10 μM methoxamine (an α1‐adrenoceptor agonist), followed by relaxation with 10 μM carbachol (a muscarinic acetylcholine receptor agonist); vessels showing relaxations of greater than 90% were designated as endothelium‐intact. When the endothelium was not required, it was removed by rubbing the intima with a human hair; carbachol‐induced relaxation of less than 10% indicated successful removal. After the test for endothelial integrity, vessels were left for 30 min and then pre‐contracted with 10 μM methoxamine. This was followed by construction of a cumulative concentration–relaxation curve to VSN16R (10 nM–1 μM). […] Most experiments were performed in matched vessels; effects of blockers or endothelial removal were compared with the control responses obtained in separate vessels of the same rats. All relaxant responses are expressed as percentage relaxation of the tone induced by methoxamine. Values are given as mean ± SEM. Statistical comparisons of concentration‐dependent responses were made by two‐way ANOVA using Prism 4 (GraphPad Software, Inc, San Diego, CA, USA).

For data set [12], the system named is BKCa channels. The arrangement: method as in Denson DD et al. Brain Res 638:61. To be noted: ref Denson DD et al. Brain Res 638:61; read-out: EC50, inhibition of inside-out current of BKCa channels; cited from earlier work.

The structures appear in SMILES notation.

T1 sequence (Q12791 whole entry): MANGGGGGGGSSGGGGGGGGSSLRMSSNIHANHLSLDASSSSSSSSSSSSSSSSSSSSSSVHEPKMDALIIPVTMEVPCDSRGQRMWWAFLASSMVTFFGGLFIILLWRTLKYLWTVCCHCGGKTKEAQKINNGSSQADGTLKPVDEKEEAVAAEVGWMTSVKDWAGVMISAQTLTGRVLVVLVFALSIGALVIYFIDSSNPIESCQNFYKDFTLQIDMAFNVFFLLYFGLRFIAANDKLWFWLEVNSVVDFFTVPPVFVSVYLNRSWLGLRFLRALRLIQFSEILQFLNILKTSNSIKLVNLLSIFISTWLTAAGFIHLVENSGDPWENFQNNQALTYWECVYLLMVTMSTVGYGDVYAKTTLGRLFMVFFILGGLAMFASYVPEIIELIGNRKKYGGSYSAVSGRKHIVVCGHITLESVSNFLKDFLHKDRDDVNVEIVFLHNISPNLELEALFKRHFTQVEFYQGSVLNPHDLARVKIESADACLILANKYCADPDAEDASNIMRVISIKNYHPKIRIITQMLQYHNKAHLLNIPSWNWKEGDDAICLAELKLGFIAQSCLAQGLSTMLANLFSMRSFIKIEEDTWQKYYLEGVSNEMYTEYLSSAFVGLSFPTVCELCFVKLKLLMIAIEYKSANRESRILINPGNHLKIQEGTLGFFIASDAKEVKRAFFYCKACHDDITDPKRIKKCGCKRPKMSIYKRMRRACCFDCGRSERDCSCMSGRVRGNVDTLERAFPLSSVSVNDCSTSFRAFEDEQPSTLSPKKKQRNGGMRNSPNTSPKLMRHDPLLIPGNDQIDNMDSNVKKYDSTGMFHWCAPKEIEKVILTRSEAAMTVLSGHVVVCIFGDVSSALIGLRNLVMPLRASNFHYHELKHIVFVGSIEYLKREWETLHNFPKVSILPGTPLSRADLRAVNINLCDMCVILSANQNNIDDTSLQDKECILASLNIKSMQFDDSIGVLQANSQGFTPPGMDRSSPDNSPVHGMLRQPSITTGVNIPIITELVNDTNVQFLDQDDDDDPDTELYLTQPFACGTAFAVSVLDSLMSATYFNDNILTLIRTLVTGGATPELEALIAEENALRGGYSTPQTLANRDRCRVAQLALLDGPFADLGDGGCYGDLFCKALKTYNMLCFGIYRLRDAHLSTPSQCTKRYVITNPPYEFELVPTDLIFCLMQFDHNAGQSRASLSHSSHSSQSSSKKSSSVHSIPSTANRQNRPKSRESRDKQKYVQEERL
T1 sequence (Q86W47 whole entry): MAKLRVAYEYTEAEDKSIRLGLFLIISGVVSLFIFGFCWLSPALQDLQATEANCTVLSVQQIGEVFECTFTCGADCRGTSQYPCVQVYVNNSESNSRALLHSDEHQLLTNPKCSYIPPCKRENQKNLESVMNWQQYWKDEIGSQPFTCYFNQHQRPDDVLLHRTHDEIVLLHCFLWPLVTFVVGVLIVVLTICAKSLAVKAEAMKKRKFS
Chain of CYP450 2B6 (P20813 whole entry): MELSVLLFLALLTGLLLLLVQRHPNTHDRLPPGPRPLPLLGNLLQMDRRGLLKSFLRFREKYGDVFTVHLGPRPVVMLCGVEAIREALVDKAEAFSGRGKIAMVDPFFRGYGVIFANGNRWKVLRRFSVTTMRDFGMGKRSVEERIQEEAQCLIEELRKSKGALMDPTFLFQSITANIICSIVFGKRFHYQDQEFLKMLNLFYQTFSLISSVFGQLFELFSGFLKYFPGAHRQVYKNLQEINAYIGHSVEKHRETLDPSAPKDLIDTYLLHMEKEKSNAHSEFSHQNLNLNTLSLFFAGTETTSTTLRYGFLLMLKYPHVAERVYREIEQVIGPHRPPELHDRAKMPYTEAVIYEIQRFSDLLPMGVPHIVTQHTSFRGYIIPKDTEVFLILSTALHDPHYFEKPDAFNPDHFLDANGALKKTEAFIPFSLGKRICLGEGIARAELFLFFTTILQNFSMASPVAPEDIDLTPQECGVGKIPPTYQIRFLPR
Chain of CYP450 2A6 (P11509 whole entry): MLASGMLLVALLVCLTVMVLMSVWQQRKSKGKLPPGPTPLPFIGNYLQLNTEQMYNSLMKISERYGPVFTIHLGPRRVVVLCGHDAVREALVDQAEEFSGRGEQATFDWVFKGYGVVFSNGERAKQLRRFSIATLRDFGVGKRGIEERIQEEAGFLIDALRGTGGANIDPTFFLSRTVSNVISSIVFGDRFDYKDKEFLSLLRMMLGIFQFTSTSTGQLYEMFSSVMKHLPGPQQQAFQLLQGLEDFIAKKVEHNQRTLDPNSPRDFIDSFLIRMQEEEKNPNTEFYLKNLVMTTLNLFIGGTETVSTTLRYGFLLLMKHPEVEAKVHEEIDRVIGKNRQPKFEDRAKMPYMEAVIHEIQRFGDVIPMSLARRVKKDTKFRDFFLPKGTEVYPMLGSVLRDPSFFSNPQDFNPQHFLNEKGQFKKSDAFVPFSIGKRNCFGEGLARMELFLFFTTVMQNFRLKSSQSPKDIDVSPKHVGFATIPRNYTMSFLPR

For `C[C@@H](CO)NC(=O)c1cccc(/C=C\CCCC(=O)N(C)C)c1` [VSN16S], the half-maximal effective concentration (EC50) was 140 nM in data set [1] and 37 nM in data set [2]. In the case of `CNC(=O)CCC/C=C\c1cccc(C(=O)N[C@H](C)CO)c1` [VSN22R, (R,Z)‐N‐(1‐hydroxypropan‐2‐yl)‐3‐(6‐(methylamino)‐6‐oxohex‐1‐en‐1‐yl)benzamide], in data set [3], the “Plasma level of the named species” value was 106 ± 6.1 ng/mL. Moreover, the EC50 in [2] amounted to 9 nM. Also, the “Single BKCa channel activity” value in [4] is “facilitated single BKCa channel activity”. Further, the concentration at 1 week in data set [5] is > 100 nM. Further, the Inhibition of spasticity entry in data set [6] is given as “could inhibit the spasticity”. Take `Cc1ncc2n1-c1ccc(Cl)cc1C(c1ccccc1F)=NC2` [midazolam, reference compound]: in data set [7], the half-life at 1 μM is 17 min. Take `CC(=O)Oc1ccc(C(c2ccc(OC(C)=O)cc2)c2ccccn2)cc1` [bisacodyl, reference compound]: the half-life at 1 μM in data set [8] was found to be 2 min. `CC(=O)N1CCN(c2ccc(OCC3COC(Cn4ccnc4)(c4ccc(Cl)cc4Cl)O3)cc2)CC1` (stereo not shown) [Ketoconazole, reference compound]: the EC50 in data set [9] is 2900 nM. `N[C@@H]1C[C@H]1c1ccccc1` (racemic) [Tranylcypromine, reference compound]: a half-maximal effect in data set [10] (EC50) was put at 200 nM. Regarding `CNC1(c2ccccc2Cl)CCCCC1=O` (stereo not shown) [ketamine], in data set [11], the “Effect on VSN16R relaxation of methoxamine-evoked contraction” value is “can inhibit the mechanism of action of VSN16R”. In [12], the EC50 was ~25 µM.

These data come from PMC5522996, “Big conductance calcium‐activated potassium channel openers control spasticity without sedation” (British Journal of Pharmacology, 2017).
